Key:
[1] = test system: Corn plants (Zea mays), Pioneer 3514; test: Herbicide mode-of-action recognition by 1H NMR of plant isolates and neural network analysis (Example 8); type: in vivo; settings: for output unit activation: small NN trained with first batch, tested on second batch, four herbicide groups and control; for herbicide treatment group assigned by the neural network: chemically different AHAS inhibitors, output unit activation vs. treatment group
Method: Zea mays seeds (Pioneer 3514) were set to germinate in paper towel rolls in tap water for 5 days in the growing chamber. The environment was adjusted to “summer conditions” (day/night ratio of 14/10 hours, regulated temperature of 27° C. and humidity of 70%). After germination the seedlings were visually inspected. Seedlings that were homogeneous in size and appearance were selected, set in 50-ml amber bottles in 25-ml Hoagland nutrient solution (12 ml micronutrients stock solution, 12 ml FeEDTA (5 g/100 ml), 2.4 ml KH2PO4 (1 M), 24 ml MgSO4 (1 M), 60 ml KNO3 (1 M), 60 ml Ca(NO3)2 (1 M), and 60 ml MES buffer (200 mM), diluted to 12 litre with deionized water) and grown for 5 more days, after which they reached the three-leaf stage. At this point, 20 μl of a stock solution of technical grade herbicide in acetone (see Table I) was added to the hydroponic solution or applied to the second leaf (with similar results). The control group of “Untreated Plants” received 20 μl acetone only and all of the plants were returned to the growing chamber.
Twenty-four hours post-treatment, the plants were harvested by excising between the coleoptile and the first leaf collar. At this time, the plants show only slight growth stunting in response to the treatments. The first leaf sheet was separated and the meristematic tissue (approximately 250 to 300 mg per plant) was collected, flash frozen in liquid nitrogen in a cryogenic 3 ml tube, and stored in a liquid nitrogen freezer until further use. The plant meristems were each pulverized in a mortar (under liquid N2), suspended in 2.4 ml of HCl solution (0.25N) and centrifuged at 14000 g, 4° C., for 60 minutes. The NMR samples were prepared from 0.8 ml of the supernatants and 0.2 ml D2O (with TSP 0.05 w/v) and kept on ice.
The 500 MHz ^1H NMR spectra of plant extracts were recorded using a Bruker AMX 500 NMR spectrometer equipped with a TXI 5 mm probe. The probe temperature was carefully regulated using the Bruker/Haake variable temperature accessory, and all spectra were recorded under identical experimental conditions, as shown in Table 10:
The time-domain NMR spectra (“FIDs”) were exponential multiplied (LB=0.5 Hz), Fourier transformed, and then phase- and baseline-corrected manually. The frequency domain were exported by the NMR software as J-CAMP formatted files, which were stored in a UNIX subdirectory for “preprocessing” via NN_Tools, as described below.
The frequency domain NMR spectra were “preprocessed” by NN_Tools as follows: J-CAMP formatted spectra files were converted into vectors (8 k real data points), and the files were renamed (renumbered) in order to be processed by further programs in an automatic fashion. A window of points was cut from the central part (around O1) of each vector to delete the residual water signal. Then points were cut from the low field and high field parts of the vector, because no resonance signals were detectable in these regions. Groups of typically five (5) adjacent points were averaged in histogram fashion (“bining”) and the resulting “preprocessed” spectrum comprised 1080 data points. Finally, vertical scaling was applied to meet the signal amplitude requirements of the neural network software.
The artificial neural network calculations described in the report were performed using a standard software package, the Stuttgart Neural Network Simulator (SNNS), on a Silicon Graphics Inc. (SGI) UNIX workstation. A convenient interface called NN_Tools, was developed in-house to perform NMR spectral preprocessing and to format the raw data for input to SNNS. NN_Tools comprises a set of Perl scripts which form patterns out of NMR spectra that can be input automatically to SNNS for the training, validation, and testing steps of neural network simulation. This free software package (“freeware”) was developed at the Institute for Parallel and Distributed High Performance Systems at the University of Stuttgart, Germany. […]

[2] = test system: corn (Zea mays) seedlings (Pioneer 3514); test: Neural network recognition of treatment from 1H NMR spectra of corn seedling extracts (training/validation cycle); type: in vivo; settings: for Network Recognition: validation set sel4c.pat, NN trained with 15 spectra (sel4.pat), meristematic tissue harvested 24 hours after treatment
Method: For example, corn (Zea mays) seeds (Pioneer 3514) were set to germinate in paper towel rolls in tap water covered with plastic foil (to minimize evaporation) for 5 days in the growing chamber. Conditions were adjusted to “summer days” (day/night 14/10 hours, controlled temperature 27° C. and humidity 70%). After germination the seedlings were visually inspected. Seedlings that were homogeneous in size and appearance were selected and set to grow in hydroponic Hoagland culture solution.
Each seedling was set in a 50 mL dark bottle in 25 mL Hoagland nutrient solution. The plants were then grown for 5 more days after they had reached the three-leaf stage. At this point the hydroponic solution was changed and the seedlings were treated as follows:
Different herbicide stock solutions in acetone were added in concentrated form to the hydroponic solution or, in the case of control plants with 20 μL acetone, or
The hydroponic solution was replaced by a solution containing different concentrations of herbicides, or just hydroponic nutrient solution for control plants.
All herbicides were technical grade. The plants were returned to the growing chamber after treatment. After 24 hours, the plants were harvested by excising between the coleoptile and the first leaf collar. The first leaf sheet was separated and the meristematic tissue collected was flash frozen in liquid nitrogen in a cryogenic 3 ml tube and stored in the liquid nitrogen freezer until further use.
For example, frozen meristematic tissue was placed in a mortar and liquid nitrogen was added. The pestle was also allowed to cool in the liquid nitrogen. When the liquid nitrogen was evaporated, the plant tissue was pulverized in the mortar. Then, 2.4 mL of 0.25N aq. HCl solution were added to the mortar and the sample was further mixed with the pestle. The suspension was placed into an Eppendorf centrifuge tube and set in ice until all the samples for an experiment were processed for centrifugation. The samples were centrifuged at 14000 g, at 4° C., for 60 minutes. The supernatant was separated from the pellet and 0.8 mL taken and mixed with 0.2 mL D2O (with TSP 0.05 w/v for NMR reference) for the lock signal in the spectrometer. The samples were kept in ice until NMR measurement.
The proton NMR spectra of plant extracts were recorded using a Bruker AMX 500 NMR spectrometer equipped with a TXI 5 mm probe. The probe temperature was carefully regulated to better than ±0.1 K using the Bruker/Haake variable temperature accessory, and all spectra were recorded under identical experimental conditions, as follows:
The NMR spectra were multiplied with an exponential function (LB parameter=0.5 Hz), Fourier transformed, and manually phase- and baseline-corrected. Spectra were, in an automatic fashion, exported into JCAMP-DX format and converted into pattern vectors for pattern recognition approaches. A window of points was removed from the central part of each vector prior to analysis, to avoid the water residual signal as shown in FIG. 2. Also, data points were removed at the low field and high field portions of the spectral vector because no resonance signals were detectable in these regions.
A first set of 71 spectra, with 3 batches of 6-9 control samples, 2 batches with 15 PURSUIT® treated samples, and one batch each with 6(4) Sethoxydim, Glyphosate, and Diuron treated samples. Two plants fouled after the herbicide treatment phase, and were treated as separate category, exemplifying samples with very different properties. […]

[3] = test system: WT corn (Pioneer 3514, PURSUIT sensitive); test: Phenotypic response of corn lines to PURSUIT in hydroponic medium, wild type line; type: in vivo, Zea mays
Method: In these experiments, seedlings from three genetically different corn seed lines were germinated, grown in hydroponic medium, excised, extracted and measured as described before. The plants belong to “wild type” (WT, Pioneer 3514, PURSUIT® sensitive), imidazolinone-tolerant (IT, Gerst 8541 heterozygotic, PURSUIT® tolerant), and imidazolinone-resistant (IR, Pioneer 3395, homozygotic, PURSUIT® resistant) lines.
Two batches with five seedlings each from WT, IR, and IT lines, were grown at various levels of PURSUIT® concentration, as follows in Table 5:
The different lines of corn can be distinguished phenotypically at growing levels of herbicide treatment. […] For WT, herbicidal effects are already observed at the lowest (41 μM) PURSUIT® concentration. On the other hand even the IR lines are affected by concentrations of imidazolinones so high as 4 mM. The plants were harvested after only 24 hours after treatment such that phenotypic differences were restricted to the development (or lack) of the fourth leaf. It is important to harvest at an early stage to avoid that the plants become senescent. The senescence process produces accumulation of a series of metabolites that would obscure the metabolic profile response associated with one specific mode of action.

[4] = test system: IR corn (Pioneer 3395, homozygotic, PURSUIT resistant); settings: saturated solution of PURSUIT; cited from earlier work
[5] = test system: corn (Zea mays) seedlings; test: Blind test: NN recognition of mode-of-action of herbicides not used in training; type: in vivo; settings: NN trained only with untreated, PURSUIT, Diuron, Sethoxydim, Glyphosate; different herbicide concentrations
Method: As an example, we have used the NN trained and validated as shown in the above Example 3. It was trained to recognize untreated, PURSUIT®, Diuron, Sethoxydim, and Glyphosate treatment. In a blind test, we presented pattern from samples that were treated with no herbicide or different concentrations of various herbicides. In addition to the herbicides used in the training set, two other imidazolinones: ASSERT® and ARSENAL® (imazapyr and imazamethabenz) and two sulfonylureas GLEAN® and OUST® (chlorsulfuron and sulfometuron) were chosen, and the plants were treated as described above. For the blind test of the ANN analysis tool the samples only the two first to batches contributed samples to the training set. Thereby, the neuronal network had to truly recognized new batches with many samples having compound treatments applied that were unknown to the NN. In summary, we found a complete success of the methodology: The neuronal network classifies all untreated samples correctly as untreated, assigns the correct herbicide treatment for all herbicides that have been previously presented to the NN during training, even if such samples originated from batches that were not part of the NN training.
Note that the learning output target for the test spectra is zero in all cases in FIG. 4a and 4b. The total SSE in the calculation was high because of the difference between the given output value (zero) and the calculated value, but the spectra were correctly classified in all cases as belonging to the second output node, which is imazethapyr or AHAS inhibition. Similar results were obtained for the second set of experiments.

| Molecule | output unit activation [1] | Network Recognition [2] | herbicide treatment group assigned by the neural network [1] | NN classification of treatment / mode-of-action in blind test [5] | also measured |
| --- | --- | --- | --- | --- | --- |
| CCc1cnc(C2=NC(C)(C(C)C)C(=O)N2)c(C(=O)O)c1 (stereo not drawn) [PURSUIT ®, imazethapyr] | ~1 | PURSUIT ® |  |  | PURSUIT concentration at which herbicidal effects are observed ([3]; WT line, lowest concentration tested, hydroponic): ≤ 41 µM; phenotypic response observed ([3]; growing levels of herbicide treatment, within 48 hours): total arrest on the growth of the plants and their wilting; phenotypic response of IR plants [4]: growth arrest |
| CC(C)C1(C)N=C(c2ncccc2C(=O)O)NC1=O (stereo not drawn) [ARSENAL®, imazapyr] |  |  | imazethapyr | correctly assigned as AHAS inhibitors |  |
| O=C(O)CNCP(=O)(O)O [Glyphosate] | ~1 | Glyphosate |  |  |  |
| imazamethabenz [ASSERT®] |  |  | imazethapyr | correctly assigned as AHAS inhibitors |  |
| CN(C)C(=O)Nc1ccc(Cl)c(Cl)c1 [Diuron] | ~1 | Diuron |  |  | NMR spectral changes of treated samples versus controls ([2]; 1H NMR of corn seedling extracts): most changes versus controls in the resonance region of the sugar-proton |
| COc1nc(C)nc(NC(=O)NS(=O)(=O)c2ccccc2Cl)n1 [GLEAN®, chlorsulfuron] |  |  | imazethapyr | correctly assigned as AHAS inhibitors |  |
| CC(NC(=O)C(C)NC(=O)C(N)CCP(C)(=O)O)C(=O)O (stereo not drawn) [Bialaphos] |  |  |  |  | signs of damage of treated plants ([1]; 24-hours post-application, bialaphos formulation): # presented much stronger signs of damage than all the others. Formulations usually produce an effect of faster absorption and sometimes translocation that increases the metabolic response. |
| Cc1cc(C)nc(NC(=O)NS(=O)(=O)c2ccccc2C(=O)O)n1 [OUST®, sulfometuron] |  |  | imazethapyr | correctly assigned as AHAS inhibitors |  |
| CCC/C(=N\OCC)C1=C(O)CC(CC(C)SCC)CC1=O (stereo not drawn) [Sethoxydim] | ~1 | Sethoxydim |  |  |  |
